ChEMBL document CHEMBL1759972, “Phenoxyacetic acids as PPARδ partial agonists: synthesis, optimization, and in vivo efficacy” (Bioorg Med Chem Lett, 2011)

Experiments:
[1] = molecular target: T1, Peroxisome proliferator-activated receptor delta (Homo sapiens, UniProt Q03181)
T1 sequence (Q03181 whole entry): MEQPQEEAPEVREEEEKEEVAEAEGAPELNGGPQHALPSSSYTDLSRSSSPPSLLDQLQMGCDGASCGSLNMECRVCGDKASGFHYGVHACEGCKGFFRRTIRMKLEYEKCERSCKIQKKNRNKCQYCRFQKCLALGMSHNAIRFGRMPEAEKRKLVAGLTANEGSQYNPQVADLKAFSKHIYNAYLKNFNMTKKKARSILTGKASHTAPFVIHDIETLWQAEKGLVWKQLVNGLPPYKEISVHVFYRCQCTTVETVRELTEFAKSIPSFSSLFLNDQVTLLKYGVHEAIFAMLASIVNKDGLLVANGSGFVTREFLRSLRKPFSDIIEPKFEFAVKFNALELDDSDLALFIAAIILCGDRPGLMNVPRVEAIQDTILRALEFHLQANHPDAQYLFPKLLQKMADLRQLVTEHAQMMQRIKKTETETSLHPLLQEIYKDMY
Description: Partial agonist activity at human PPARdelta expressed in african green monkey CV1 cells transfected with Gal4 assessed as beta-galactosidase activity by transactivation assay

[2] = molecular target: T2, Peroxisome proliferator-activated receptor alpha (Homo sapiens, UniProt Q07869); assay: Displacement of [3H]GW 2433 from human PPARalpha by scintillation proximity assay
T2 sequence (Q07869 whole entry): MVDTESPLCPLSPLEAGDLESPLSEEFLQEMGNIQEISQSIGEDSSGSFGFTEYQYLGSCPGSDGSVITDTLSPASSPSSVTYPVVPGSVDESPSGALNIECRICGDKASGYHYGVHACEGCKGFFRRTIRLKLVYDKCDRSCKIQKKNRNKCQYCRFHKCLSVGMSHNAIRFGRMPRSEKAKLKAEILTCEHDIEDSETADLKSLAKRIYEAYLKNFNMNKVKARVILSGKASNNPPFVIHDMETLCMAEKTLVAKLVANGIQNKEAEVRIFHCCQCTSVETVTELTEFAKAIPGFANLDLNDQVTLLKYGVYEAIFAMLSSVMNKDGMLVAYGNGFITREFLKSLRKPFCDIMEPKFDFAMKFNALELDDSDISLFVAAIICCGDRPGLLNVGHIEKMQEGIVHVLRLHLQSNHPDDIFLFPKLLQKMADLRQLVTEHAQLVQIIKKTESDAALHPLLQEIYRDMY

[3] = molecular target: T1, Peroxisome proliferator-activated receptor delta; remark: listed apart in the source
Description: Displacement of [3H]GW 2433 from human PPARdelta by scintillation proximity assay

[4] = molecular target: T3, Peroxisome proliferator-activated receptor gamma (Homo sapiens, UniProt P37231)
T3 sequence (P37231 whole entry): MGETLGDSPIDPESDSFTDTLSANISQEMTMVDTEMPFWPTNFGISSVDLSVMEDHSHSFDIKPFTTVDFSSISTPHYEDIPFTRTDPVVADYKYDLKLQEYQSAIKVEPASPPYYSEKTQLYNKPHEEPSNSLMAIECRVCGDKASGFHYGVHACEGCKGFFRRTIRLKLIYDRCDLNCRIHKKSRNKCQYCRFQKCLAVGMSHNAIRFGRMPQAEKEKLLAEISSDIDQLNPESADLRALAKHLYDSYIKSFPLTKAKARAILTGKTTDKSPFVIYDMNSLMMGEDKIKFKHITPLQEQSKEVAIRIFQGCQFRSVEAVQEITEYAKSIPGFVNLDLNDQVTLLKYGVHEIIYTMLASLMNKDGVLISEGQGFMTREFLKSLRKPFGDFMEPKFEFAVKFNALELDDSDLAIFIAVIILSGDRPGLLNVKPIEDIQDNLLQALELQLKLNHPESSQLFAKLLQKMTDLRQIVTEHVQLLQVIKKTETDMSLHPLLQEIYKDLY
Description: Displacement of [3H]GW 2433 from human PPARgamma by scintillation proximity assay

Compound	EC50 [1]	IC50 [2]	IC50 [3]	IC50 [4]
CCCCN(c1cccc(-c2ccc(Cl)cc2)c1C)S(=O)(=O)c1ccc(OC(C)C(=O)O)c(OC)c1Cl (stereo not drawn)	316 nM	15800 nM	158 nM	–
CCCCN(c1cc(-c2ccc(Cl)cc2)ccc1OC(F)(F)F)S(=O)(=O)c1ccc(OC(C)C(=O)O)c(C)c1C (stereo not drawn)	1000 nM	12600 nM	3160 nM	10000 nM
CCCCN(c1cccc(-c2ccc(Cl)cc2)c1C)S(=O)(=O)c1ccc(OC(CC)C(=O)O)c(C)c1C (stereo not drawn)	126 nM	15800 nM	63.1 nM	–
CCCCN(c1cccc(-c2ccccc2Cl)c1C)S(=O)(=O)c1ccc(OC(C)C(=O)O)c(C)c1C (stereo not drawn)	2000 nM	12600 nM	1580 nM	–
CCCCN(c1cccc(-c2ccc(C)cc2)c1C)S(=O)(=O)c1ccc(OC(C)C(=O)O)c(C)c1C (stereo not drawn)	31.6 nM	15800 nM	79.4 nM	–
CCCCC(Oc1ccc(S(=O)(=O)N(CCCC)c2cccc(-c3ccc(Cl)cc3)c2C)c(C)c1C)C(=O)O (stereo not drawn)	> 10000 nM	10000 nM	158 nM	–
CCCCN(c1ccc(C)c(-c2ccc(Cl)cc2)c1)S(=O)(=O)c1ccc(OC(C)C(=O)O)c(C)c1C (stereo not drawn)	126 nM	20000 nM	398 nM	3160 nM
CCCCN(c1cccc(-c2ccc(Cl)cc2)c1OC)S(=O)(=O)c1ccc(OC(C)C(=O)O)c(C)c1C (stereo not drawn)	20 nM	12600 nM	25.1 nM	–
CCCCN(c1cc(-c2ccc(Cl)cc2)c(F)cc1C)S(=O)(=O)c1ccc(OC(C)C(=O)O)c(C)c1C (stereo not drawn)	3160 nM	10000 nM	5010 nM	7940 nM
CCCCN(c1cccc(-c2cccc(Cl)c2)c1C)S(=O)(=O)c1ccc(OC(C)C(=O)O)c(C)c1C (stereo not drawn)	501 nM	7940 nM	631 nM	–
CCCCN(c1cccc(-c2ccc(Cl)cc2)c1C)S(=O)(=O)c1ccc(O[C@@H](C)C(=O)O)c(C)c1C	316 nM	15800 nM	631 nM	–
CCCCN(c1cccc(-c2ccc(Cl)cc2)c1C)S(=O)(=O)c1ccc(O[C@H](C)C(=O)O)c(C)c1C	12.6 nM	20000 nM	25.1 nM	–
CCCCN(c1cc(-c2ccc(Cl)cc2)ccc1C)S(=O)(=O)c1ccc(OC(C)C(=O)O)c(C)c1C (stereo not drawn)	794 nM	10000 nM	1580 nM	6310 nM
CCCCN(c1cccc(-c2ccc(Cl)cc2)c1C)S(=O)(=O)c1ccc(OCC(=O)O)c(C)c1C	2 nM	6310 nM	12.6 nM	2510 nM
CCCCN(c1ccc(F)c(-c2ccc(Cl)cc2)c1)S(=O)(=O)c1ccc(OC(C)C(=O)O)c(C)c1C (stereo not drawn)	39.8 nM	20000 nM	200 nM	2000 nM
CCCCN(c1cccc(-c2ccc(C(F)(F)F)cc2)c1C)S(=O)(=O)c1ccc(OC(C)C(=O)O)c(C)c1C (stereo not drawn)	–	15800 nM	15.8 nM	–
CCCCN(c1cc(-c2ccc(Cl)cc2)c(F)cc1F)S(=O)(=O)c1ccc(OC(C)C(=O)O)c(C)c1C (stereo not drawn)	1260 nM	10000 nM	3160 nM	1580 nM
Cc1c(-c2ccc(Cl)cc2)cccc1N(CCCC(F)(F)F)S(=O)(=O)c1ccc(OC(C)C(=O)O)c(C)c1C (stereo not drawn)	2000 nM	20000 nM	1260 nM	–
Cc1cc(S(=O)(=O)N(CCC(C)C)c2cccc(-c3ccc(C(F)(F)F)cc3)c2)ccc1OCC(=O)O	158 nM	15800 nM	1260 nM	5010 nM

Compound	EC50 [1]	IC50 [2]	IC50 [3]	IC50 [4]
CCCCCN(c1cccc(-c2ccc(Cl)cc2)c1C)S(=O)(=O)c1ccc(OC(C)C(=O)O)c(C)c1C (stereo not drawn)	398 nM	15800 nM	794 nM	–
CCCCN(c1cccc(-c2ccc(Cl)c(Cl)c2)c1C)S(=O)(=O)c1ccc(OC(C)C(=O)O)c(C)c1C (stereo not drawn)	126 nM	20000 nM	126 nM	–
CCCCN(c1cccc(-c2ccc(Cl)cc2)c1C)S(=O)(=O)c1ccc(OC(CCC)C(=O)O)c(C)c1C (stereo not drawn)	> 10000 nM	10000 nM	158 nM	–
CCCCN(c1cccc(-c2ccc(Cl)cc2)c1C)S(=O)(=O)c1ccc(OC(C)C(=O)O)c(F)c1Cl (stereo not drawn)	398 nM	12600 nM	251 nM	–
CCCCN(c1cccc(-c2ccc(Cl)cc2)c1C)S(=O)(=O)c1ccc(OC(C)C(=O)O)c(C2CCCCC2)c1 (stereo not drawn)	15.8 nM	15800 nM	15.8 nM	7940 nM
CCCCN(c1cccc(-c2ccc(Cl)cc2)c1Cl)S(=O)(=O)c1ccc(OC(C)C(=O)O)c(C)c1C (stereo not drawn)	10 nM	12600 nM	7.94 nM	–
Cc1c(-c2ccc(Cl)cc2)cccc1N(CC1CC1)S(=O)(=O)c1ccc(OC(C)C(=O)O)c(C)c1C (stereo not drawn)	794 nM	15800 nM	794 nM	–
CCCCN(c1cccc(-c2ccc(Cl)cc2)c1C)S(=O)(=O)c1ccc(OC(C)C(=O)O)c(Cl)c1Cl (stereo not drawn)	63.1 nM	10000 nM	79.4 nM	–
CCCCN(c1cccc(-c2ccc(Cl)cc2)c1C)S(=O)(=O)c1ccc(OC(C)C(=O)O)c(F)c1F (stereo not drawn)	–	10000 nM	631 nM	–
Cc1c(-c2ccc(Cl)cc2)cccc1N(CC1CCC1)S(=O)(=O)c1ccc(OC(C)C(=O)O)c(C)c1C (stereo not drawn)	501 nM	12600 nM	1000 nM	–
COCCN(c1cccc(-c2ccc(Cl)cc2)c1C)S(=O)(=O)c1ccc(OC(C)C(=O)O)c(C)c1C (stereo not drawn)	501 nM	> 20000 nM	501 nM	–
CCCCN(c1cccc(-c2ccc(OC(F)(F)F)cc2)c1C)S(=O)(=O)c1ccc(OC(C)C(=O)O)c(C)c1C (stereo not drawn)	39.8 nM	10000 nM	79.4 nM	–
CCCCN(c1cc(-c2ccc(Cl)cc2)cc(C(F)(F)F)c1)S(=O)(=O)c1ccc(OC(C)C(=O)O)c(C)c1C (stereo not drawn)	100 nM	12600 nM	63.1 nM	5010 nM
CCCCN(c1cccc(-c2ccc(Cl)cc2)c1C)S(=O)(=O)c1ccc(OC(C)C(=O)O)c(OC)c1OC (stereo not drawn)	> 10000 nM	> 25100 nM	5010 nM	–
CCCN(c1cccc(-c2ccc(Cl)cc2)c1C)S(=O)(=O)c1ccc(OC(C)C(=O)O)c(C)c1C (stereo not drawn)	79.4 nM	20000 nM	126 nM	–
CCCCN(c1cccc(-c2ccc(OC)cc2)c1C)S(=O)(=O)c1ccc(OC(C)C(=O)O)c(C)c1C (stereo not drawn)	39.8 nM	15800 nM	100 nM	–
CCCCN(c1c(C)cc(C)c(-c2ccc(Cl)cc2)c1C)S(=O)(=O)c1ccc(OC(C)C(=O)O)c(C)c1C (stereo not drawn)	> 10000 nM	20000 nM	10000 nM	7940 nM
CCCCN(c1cccc(-c2ccc(Cl)cc2)c1C)S(=O)(=O)c1ccc(OC(C)C(=O)O)c(F)c1OC (stereo not drawn)	–	15800 nM	–	–
